The values below come from ChEMBL document CHEMBL3872283, “Design, Synthesis, and Evaluation of Novel and Selective G-protein Coupled Receptor 120 (GPR120) Spirocyclic Agonists” (ACS Med Chem Lett, 2017).

pEC50: −log10 of the molar value. Active and inactive are the calls of the source. The rule behind the calls is not given here.

The target of data set [1] is T1, Free fatty acid receptor 4 (Homo sapiens, UniProt Q5NUL3).
T1 sequence (Q5NUL3 whole entry): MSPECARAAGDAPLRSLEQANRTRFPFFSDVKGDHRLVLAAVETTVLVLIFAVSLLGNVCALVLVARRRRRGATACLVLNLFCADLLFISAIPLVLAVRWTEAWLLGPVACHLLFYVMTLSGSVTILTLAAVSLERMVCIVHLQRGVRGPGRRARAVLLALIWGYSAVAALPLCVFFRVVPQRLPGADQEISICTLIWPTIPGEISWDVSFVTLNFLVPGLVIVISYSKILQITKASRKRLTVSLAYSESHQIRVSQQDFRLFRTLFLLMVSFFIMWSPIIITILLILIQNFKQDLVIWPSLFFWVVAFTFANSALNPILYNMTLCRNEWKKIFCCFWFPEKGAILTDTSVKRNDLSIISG
As to the kind of experiment: Agonist activity at ARMS2-PK2 -tagged human GPR120 short isoform expressed in CHOK1 cells assessed as induction of beta-arrestin2 recruitment after 90 mins by luminescence assay. It is filed as cell-based, CHO-K1.

For data set [2], the target named is T1, Free fatty acid receptor 4. As to the kind of experiment: Agonist activity at human GPR120 short isoform expressed in CHOK1 cells assessed as induction of IP1 accumulation after 60 mins by HTRF assay. It is filed as functional, cell-based, CHO-K1.
The target of data set [3] is T2, Free fatty acid receptor 1 (Homo sapiens, UniProt O14842). As to the kind of experiment: Agonist activity at human GPR40 expressed in HEK293 cells assessed as induction of IP1 accumulation after 60 mins by HTRF assay. It is filed as functional, cell-based.
The target of data set [4] is T3, Free fatty acid receptor 4 (Mus musculus, UniProt Q7TMA4).
T3 sequence (Q7TMA4 whole entry): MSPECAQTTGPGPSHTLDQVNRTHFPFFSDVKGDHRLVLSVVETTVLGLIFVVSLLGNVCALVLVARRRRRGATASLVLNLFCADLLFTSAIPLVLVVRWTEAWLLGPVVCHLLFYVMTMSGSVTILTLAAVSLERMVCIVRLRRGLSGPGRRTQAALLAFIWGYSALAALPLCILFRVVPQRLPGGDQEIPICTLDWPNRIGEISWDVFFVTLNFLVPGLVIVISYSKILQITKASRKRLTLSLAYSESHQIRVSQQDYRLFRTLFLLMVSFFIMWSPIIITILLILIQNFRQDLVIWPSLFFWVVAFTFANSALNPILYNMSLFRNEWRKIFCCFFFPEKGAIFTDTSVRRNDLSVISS
The data set is described as follows: Agonist activity at mouse GPR120 expressed in CHOK1 cells assessed as induction of IP1 accumulation after 60 mins by HTRF assay. In kind it is functional, cell-based, CHO-K1.

The target of data set [5] is T3, Free fatty acid receptor 4. As to the kind of experiment: Agonist activity at mouse GPR120 expressed in U2OS cells assessed as induction of beta-arrestin2 recruitment after 90 mins by luminescence assay. In kind it is cell-based.
For data set [6], the target named is T3, Free fatty acid receptor 4. As to the kind of experiment: Agonist activity at mouse GPR120 assessed as induction of beta-arrestin recruitment.
Data set [7] concerns the target T1, Free fatty acid receptor 4. The data set is described as follows: Agonist activity at human GPR120 assessed as induction of beta-arrestin recruitment.
The target of data set [8] is T3, Free fatty acid receptor 4. As to the kind of experiment: Agonist activity at mouse GPR120 assessed as induction of IP1 accumulation. In kind it is functional.
In data set [9] the target is T1, Free fatty acid receptor 4. The data set is described as follows: Agonist activity at human GPR120 assessed as induction of IP1 accumulation. It is filed as functional.
The target of data set [10] is T2, Free fatty acid receptor 1. As to the kind of experiment: Agonist activity at human GPR40 assessed as induction of IP1 accumulation. In kind it is functional.
Data set [11] has as its system Mus musculus. The data set is described as follows: Antidiabetic activity in diet-induced obese mouse assessed as insulin sensitivity by measuring reduction in glucose at 10 mg/kg, po qd administered daily via gavage for 14 days measured on day 14 post dose. It is filed as functional, organism-based.
The subject of data set [12] is Mus musculus. As to the kind of experiment: Decrease in insulin levels in diet-induced obese mouse at 10 mg/kg, po qd administered daily via gavage for 14 days measured on day 14 post dose. It is filed as functional, organism-based.
Data set [13] has as its system Mus musculus. The data set is described as follows: Decrease in insulin levels in diet-induced obese mouse at 10 mg/kg, po qd administered daily via gavage for 28 days measured on day 28 post dose. In kind it is functional, organism-based.
The subject of data set [14] is Mus musculus. The data set is described as follows: Antidiabetic activity in diet-induced obese mouse assessed as increase in glucose infusion rate during hyperinsulinemic euglycemic clamp procedure at 10 mg/kg, po qd administered daily via gavage measured after 28 days. It is filed as functional, organism-based.
Data set [15] has as its system Mus musculus. The data set is described as follows: Antidiabetic activity in diet-induced obese mouse assessed as insulin sensitivity by measuring reduction in glucose at 10 mg/kg, po qd administered daily via gavage for 28 days measured on day 28 post dose. It is filed as functional, organism-based.
The subject of data set [16] is Mus musculus. The data set is described as follows: Toxicity in diet-induced obese mouse assessed as change in body weight at 10 mg/kg, po qd administered daily via gavage for 28 days. In kind it is organism-based. As to conditions: in vivo, 672 h.

T2 sequence (O14842 whole entry): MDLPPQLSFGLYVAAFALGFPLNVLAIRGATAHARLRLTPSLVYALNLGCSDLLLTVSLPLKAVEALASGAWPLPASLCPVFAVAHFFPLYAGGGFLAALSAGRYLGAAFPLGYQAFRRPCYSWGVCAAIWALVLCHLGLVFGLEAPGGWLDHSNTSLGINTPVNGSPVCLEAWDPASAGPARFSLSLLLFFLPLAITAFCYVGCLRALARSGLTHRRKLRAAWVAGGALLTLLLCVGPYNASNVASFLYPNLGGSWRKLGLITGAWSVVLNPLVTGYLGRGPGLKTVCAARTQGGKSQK

For the compound `O=C(O)CC1CCC2(CC1)CCN(c1cc(C(F)(F)F)ccc1F)CC2`, the pEC50 is 5.66 in data set [1]; 5.92 in data set [2]; below 5.00 in data set [3]; 6.23 in data set [4]; 5.52 in data set [5].

Consider `O=C(O)c1ccc(C2CCN(c3cc(OC(F)(F)F)ccc3F)CC2)cc1`, for which the pEC50 in data set [6], in data set [7], in data set [8], in data set [9] and in data set [10] was below 5.00 in each case.

Regarding `O=C(O)CC1CCC2(CCN(c3cc(OC(F)(F)F)ccc3Cl)CC2)OC1` (stereo unspecified), the results for the pEC50 in [1] and in data set [2] were 5.68 and 5.24, respectively.

Consider `CC1CC2(CCC1CC(=O)O)CCN(c1cc(OC(F)(F)F)ccc1Cl)CC2` (stereo unspecified), for which the pEC50 is 5.57 in data set [1] and 5.39 in [2].

Turning to `O=C(O)CC1CCC2(CC1)CCN(c1cc(C(F)(F)F)ccn1)CC2`, the pEC50 in data set [1] is 5.04; in data set [2], 5.51; in [3], below 5.00; in data set [4] it was 5.89; in data set [5], 5.38.

As for `CC1CC(CC(=O)O)CCC12CCN(c1cc(OC(F)(F)F)ccc1Cl)CC2` (stereo unspecified), the negative-log EC50 (pEC50) is 6.24 in data set [1] and 6.36 in data set [2].

Regarding `O=C(O)CC1CCC2(CC1)CCN(c1cc(F)cc(Cl)c1F)CC2`, the pEC50 in data set [1] is 5.85; in [2] it was 6.38; in [3] it was 5.09; in [4] it was 6.72; in data set [5], 5.96.

As for `CCc1ccc(CCOc2ccc(CC3SC(=O)NC3=O)cc2)nc1` (stereo unspecified) [PIOGLITAZONE], the outcome in data set [11], in data set [12], in data set [13], in data set [14] and in [15] was Active. Moreover, the Activity result in data set [16] is “Toxic”.

Take `COc1ccc(Cl)c(N2CCC3(CCC(CC(=O)O)CC3)CC2)c1`: the pEC50 in data set [1] was 5.60; in data set [2], 5.68; in [3], below 5.00; in data set [4], 6.24; in data set [5] it was 5.28.

In the case of `O=C(O)CCc1cc2cc(-c3cc(OC(F)(F)F)ccc3F)ccc2o1`, the pEC50 is 7.68 in data set [6] and 7.80 in [7].

Turning to `O=C(O)CN1CCC2(CC1)CCN(c1cc(OC(F)(F)F)ccc1F)CC2`, the pEC50 in data set [1] and in [2] was below 5.00 in each case.

For the compound `O=C(O)C1CCN(c2ccc(-c3cc(OC(F)(F)F)ccc3F)cc2)CC1`, the negative logarithm of the EC50 (pEC50) is 6.49 in data set [6]; 5.80 in data set [7]; 7.05 in [8]; 6.52 in data set [9]; below 5.00 in [10].

Turning to `O=C(O)CCC1CCC2(CC1)CCN(c1cc(OC(F)(F)F)ccc1Cl)CC2`, the negative logarithm of the EC50 (pEC50) in data set [1] was 6.00; in data set [2], 5.57.

For `Cc1cc(-c2cc(OC(F)(F)F)ccc2Cl)cc(C)c1OCCCC(=O)O`, the negative logarithm of the EC50 (pEC50) was 7.46 in data set [6], 7.00 in [7] and below 5.00 in data set [10].

With `OCCC1CCC2(CC1)CCN(c1cc(OC(F)(F)F)ccc1Cl)CC2`, the negative-log EC50 (pEC50) in data set [1] is 6.48; in data set [2], 5.37.

`CC(C(=O)O)C1CCC2(CC1)CCN(c1cc(OC(F)(F)F)ccc1Cl)CC2` (stereo unspecified): the figures for the negative-log EC50 (pEC50) in data set [1] and in [2] were 5.36 and 5.46, respectively.

For `O=C(O)C1CC12CCC1(CCN(c3cc(OC(F)(F)F)ccc3Cl)CC1)CC2` (stereo unspecified), the pEC50 in data set [1] was 5.41; in [2], 5.66.

In the case of `O=C(O)CC1CCC2(CC1)CCN(c1cc(Cl)cc(Cl)c1)CC2`, the negative-log EC50 (pEC50) is 6.72 in data set [1]; 6.66 in data set [2]; 5.20 in data set [3]; 7.29 in [4]; 6.92 in data set [5].

`CC1(C)Cc2cc(Cl)cc(N3CCC4(CCC(CC(=O)O)CC4)CC3)c2O1`: the pEC50 in [1] is 5.51; in data set [2] it was 5.48; in [3], below 5.00; in data set [4], 6.17; in [5], 5.40.

On to `O=C(O)CC1CCC2(CC1)CCN(c1ccccc1Cl)CC2`, for which the negative logarithm of the EC50 (pEC50) in data set [1], in data set [2], in [3], in data set [4] and in [5] was below 5.00 throughout.

Regarding `O=C(O)CC1CCC2(CC1)CCN(c1cc(OC(F)(F)F)ccc1F)CC2`, the negative logarithm of the EC50 (pEC50) in data set [1] was 6.15; in data set [2], 6.89; in data set [3], below 5.00; in data set [4], 7.31; in data set [5] it was 6.33.

Regarding `N#Cc1cc(SC(F)(F)F)cc(N2CCC3(CCC(CC(=O)O)CC3)CC2)c1`, the pEC50 was 6.32 in [1]; 6.44 in data set [2]; below 5.00 in data set [3]; 7.36 in data set [4]; 6.85 in data set [5].

As for `N#Cc1ccc(OC(F)(F)F)cc1N1CCC2(CCC(CC(=O)O)CC2)CC1`, the pEC50 in data set [1] was 6.43; in data set [2], 6.70; in data set [3], 5.60; in data set [4], 7.18; in data set [5], 6.54.

With `O=C(O)C1CCC(C2CCN(c3cc(OC(F)(F)F)ccc3F)CC2)CC1` (stereo unspecified), the pEC50 in data set [6] is 6.00; in data set [8], 5.83; in data set [9] it was 6.15; in data set [10], below 5.00.
